Assay: xn = mol fraction of the nth substance listed
Details: 298 K, 101 kPa

CCCn1cc[n+](C)c1.[Br-] + CC1COC(=O)O1
Details	electrical conductivity [S/m]
x1 = 0.004	0.09
x2 = 0	0.03
x2 = 0.19	0.07
x2 = 0.27	0.09
x2 = 0.38	0.15
x2 = 0.46	0.26
x2 = 0.49	0.26
x2 = 0.55	0.42
x2 = 0.61	0.47
x2 = 0.76	0.59
x2 = 0.82	0.69
x2 = 0.89	0.73
x2 = 0.93	0.63
x2 = 0.96	0.49

CCCn1cc[n+](C)c1.[Br-] + O
Details	electrical conductivity [S/m]
x1 = 0.0002	0.16
x2 = 0	0.03
x2 = 0.22	0.155
x2 = 0.36	0.46
x2 = 0.51	1.22
x2 = 0.79	6.23
x2 = 0.96	8.92

CC[n+]1ccn(C)c1.F[B-](F)(F)F + O
Details	electrical conductivity [S/m]
x1 = 0.0001	0.08
x1 = 0.01	4.13
x2 = 0	1.39
x2 = 0.16	2.04
x2 = 0.34	2.92
x2 = 0.47	4.11
x2 = 0.66	6.17
x2 = 0.9	9.28
x2 = 0.92	8.78
x2 = 0.95	8.32
x2 = 0.97	6.32

Cn1ccnc1 + CC[n+]1ccn(C)c1.F[B-](F)(F)F
Details	electrical conductivity [S/m]
x1 = 0.1	1.67
x1 = 0.19	1.72
x1 = 0.31	1.83
x1 = 0.41	1.91
x1 = 0.51	2.01
x1 = 0.61	2.11
x1 = 0.7	2.15
x1 = 0.8	2.12
x1 = 0.85	1.85
x1 = 0.9	1.7
x1 = 0.95	1.18
x2 = 0.003	0.14

CC[n+]1ccn(C)c1.F[B-](F)(F)F + CC1COC(=O)O1
Details	electrical conductivity [S/m]
x1 = 0.001	0.05
x2 = 0	1.39
x2 = 0.37	1.73
x2 = 0.55	1.85
x2 = 0.65	1.87
x2 = 0.75	1.8
x2 = 0.95	0.99

CNC=O + CC[n+]1ccn(C)c1.F[B-](F)(F)F
Details	electrical conductivity [S/m]
x1 = 0.05	1.59
x1 = 0.11	1.79
x1 = 0.31	2.26
x1 = 0.57	2.97
x1 = 0.72	3.15
x1 = 0.78	3.26
x1 = 0.86	3.05
x1 = 0.91	2.62
x2 = 0.001	0.34
